Experimental data as given in ChEMBL document CHEMBL1681729, “2-aminomethylphenylamine as a novel scaffold for factor Xa inhibitor” (Bioorg Med Chem, 2011).
≈ marks a conversion by molar mass, not a printed value.

Assays:
[1] = Distribution coefficient, log D of the compound at pH 7.4 by LC-MS; format: physicochemical; conditions: octanol/water
[2] = Solubility of the compound in Japanese Pharmacopoeia First Fluid of pH 6.8 by HPLC; format: physicochemical
[3] = Solubility of the compound in Japanese Pharmacopoeia First Fluid of pH 1.2 by HPLC; format: physicochemical
Coagulation factor X = Coagulation factor X (Homo sapiens, UniProt P00742); test: Inhibition of factor 10a by S2222 chromogenic substrate assay by chromogenic assay
Plasma = test: Anticoagulant activity in human plasma assessed as concentration required to double prothrombin time; format: functional
Rattus norvegicus [4] = test: Inhibition of factor 10a in overnight fasted Wistar rat plasma at 10 mg/kg, po after 2 hrs by S2222 chromogenic substrate assay; format: functional
Rattus norvegicus [5] = test: Inhibition of factor 10a in overnight fasted Wistar rat plasma at 10 mg/kg, po after 0.5 hrs by S2222 chromogenic substrate assay; format: functional
Rattus norvegicus [6] = test: Inhibition of factor 10a in overnight fasted Wistar rat plasma at 10 mg/kg, po after 1 hr by S2222 chromogenic substrate assay; format: functional
Rattus norvegicus [7] = test: Inhibition of factor 10a in overnight fasted Wistar rat plasma at 10 mg/kg, po after 4 hrs by S2222 chromogenic substrate assay; format: functional
[8] = Tmax in serum of cynomolgus monkey at 1 mg/kg, po after 0.5 to 24 hrs; format: ADME, organism-based, Macaca fascicularis; design: dose 1 mg/kg, route oral
[9] = Cmax in serum of cynomolgus monkey at 1 mg/kg, po after 0.5 to 24 hrs by LC/MS/MS coupled with HPLC; format: ADME, organism-based, Macaca fascicularis; design: dose 1 mg/kg, route oral
[10] = Half life in serum of cynomolgus monkey at 1 mg/kg, po after 0.5 to 24 hrs; format: ADME, organism-based, Macaca fascicularis; design: dose 1 mg/kg, route oral
[11] = AUC (0 to 24 hrs) in serum of cynomolgus monkey at 1 mg/kg, po after 0.5 to 24 hrs; format: ADME, organism-based, Macaca fascicularis; design: time < 24 hr, dose 1 mg/kg, route oral

Chain of Coagulation factor X (P00742 41-179 limits assumed): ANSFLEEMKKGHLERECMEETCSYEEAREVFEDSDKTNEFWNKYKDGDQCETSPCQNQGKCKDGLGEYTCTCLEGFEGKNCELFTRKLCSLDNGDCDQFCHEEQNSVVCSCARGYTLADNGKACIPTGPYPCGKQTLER
Chain of Coagulation factor X (P00742 235-488 limits assumed): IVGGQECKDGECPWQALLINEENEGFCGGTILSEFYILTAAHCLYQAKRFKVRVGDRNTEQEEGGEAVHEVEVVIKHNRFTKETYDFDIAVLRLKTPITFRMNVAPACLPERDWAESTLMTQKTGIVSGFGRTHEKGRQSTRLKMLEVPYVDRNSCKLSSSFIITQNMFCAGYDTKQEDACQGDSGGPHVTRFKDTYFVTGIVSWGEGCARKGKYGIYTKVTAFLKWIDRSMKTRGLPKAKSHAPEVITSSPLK

Row | logD [1] | solubility [2] [µg/mL] | solubility [3] [µg/mL] | IC50 (Coagulation factor X) [nM] | SMILES | Activity (Plasma) [µM] | also measured
1 | 2.7 | 150 (≈ 339 µM) | 760 (≈ 1720 µM) | 4150 | CN1CCc2nc(C(=O)Nc3ccccc3CNC(=O)c3cc(Cl)ccn3)sc2C1 | – | –
2 | – | – | – | 93 | CN1CCc2nc(C(=O)NCCCNC(=O)c3ccc(Cl)s3)sc2C1 | 7.6 | –
3 | 2.6 | > 590 | > 590 | 13 | CN1CCc2nc(C(=O)Nc3cnccc3CNC(=O)c3ccc(Cl)s3)sc2C1 | 1.8 | –
4 | 2.2 | 120 (≈ 268 µM) | 860 (≈ 1920 µM) | 18 | CN1CCc2nc(C(=O)Nc3ncccc3CNC(=O)c3ccc(Cl)s3)sc2C1 | 1.5 | –
5 | 2.8 | 380 (≈ 860 µM) | 350 (≈ 792 µM) | 2480 | CN1CCc2nc(C(=O)Nc3ccccc3CNC(=O)c3ccc(Cl)cn3)sc2C1 | – | –
6 | 3.3 | > 4.9 | 880 (≈ 1960 µM) | 12 | CN1CCc2nc(C(=O)Nc3ccncc3CNC(=O)c3ccc(Cl)s3)sc2C1 | 1.4 | –
7 | 2.8 | 100 (≈ 226 µM) | 600 (≈ 1360 µM) | 623 | CN1CCc2nc(C(=O)Nc3ccccc3CC(=O)Nc3ccc(Cl)cn3)sc2C1 | 17 | –
8 | 3.4 | 42 (≈ 95.2 µM) | 560 (≈ 1270 µM) | 642 | CN1CCc2nc(C(=O)Nc3ccccc3CNC(=O)c3ccc(Cl)cc3)sc2C1 | – | –
9 | 2.9 | 100 (≈ 224 µM) | > 640 | 59 | CN1CCc2nc(NC(=O)c3ccccc3CNC(=O)c3ccc(Cl)s3)sc2C1 | 2.3 | –
10 | 2.8 | < 2.3 | < 2.3 | 4.1 | O=C(Nc1ccccc1CNC(=O)c1ccc(Cl)s1)c1ccc(N2CCOCC2=O)cc1 | 0.91 | inhibition in vivo at 10 mg/kg (Rattus norvegicus [4]): 12.7%; inhibition in vivo at 10 mg/kg (Rattus norvegicus [5]): 17.1%; inhibition in vivo at 10 mg/kg (Rattus norvegicus [6]): 14.1%; inhibition in vivo at 10 mg/kg (Rattus norvegicus [7]): 12.7%
11 | 3.3 | 17 (≈ 38 µM) | 150 (≈ 336 µM) | – | CN1CCc2nc(C(=O)Nc3ccccc3CNC(=O)c3ccc(Cl)s3)sc2C1 | – | –
12 | 1.4 | > 820 | 810 (≈ 1930 µM) | 1930 | CC(C)N1CCC(NC(=O)c2ccccc2CNC(=O)c2ccc(Cl)s2)CC1 | – | –
13 | 3.3 | 160 (≈ 363 µM) | 680 (≈ 1540 µM) | 1620 | CN1CCc2nc(C(=O)Nc3ccccc3CNC(=O)c3cccc(Cl)c3)sc2C1 | – | –

The next lines start with the molecule.

Row | SMILES | logD [1] | solubility [2] [µg/mL] | solubility [3] [µg/mL] | IC50 (Coagulation factor X) [nM] | Activity (Plasma) [µM] | also measured
14 | CN1CCc2nc(C(=O)Nc3ccccc3CNC(=O)c3ccc(Cl)[nH]3)sc2C1 | 3.1 | 33 (≈ 76.8 µM) | > 810 | > 10000 | – | –
15 | CN1CCc2nc(C(=O)N3CCC(NC(=O)c4ccc(Cl)s4)CC3)sc2C1 | – | – | – | 1020 | >20 | –
16 | CN1CCc2nc(C(=O)NCc3ccccc3NC(=O)c3ccc(Cl)s3)sc2C1 | – | – | – | 5680 | – | –
17 | CN1CCc2nc(C(=O)N[C@@H]3CCCC[C@@H]3CNC(=O)c3ccc(Cl)s3)sc2C1 (relative stereo) | 3.7 | 290 (≈ 640 µM) | 800 (≈ 1770 µM) | 27 | 3.4 | –
18 | CN1CCc2nc(C(=O)Nc3ccccc3CNC(=O)c3cc(Cl)c[nH]3)sc2C1 | 3.2 | 170 (≈ 395 µM) | 690 (≈ 1600 µM) | 48 | 2.2 | –
19 | CN1CCc2nc(C(=O)N[C@@H]3CCCC[C@H]3CNC(=O)c3ccc(Cl)s3)sc2C1 (relative stereo) | 3.5 | 440 (≈ 971 µM) | > 600 | 439 | 17 | –
20 | CN1CCc2nc(C(=O)Nc3cccnc3CNC(=O)c3ccc(Cl)s3)sc2C1 | 2.8 | 67 (≈ 150 µM) | 890 (≈ 1990 µM) | 11 | 1 | –
21 | CC(C)N1CCC(C(=O)Nc2ccccc2CNC(=O)c2ccc(Cl)s2)CC1 | 1.5 | > 680 | > 680 | 204 | 5.2 | –
22 | CN1CCc2nc(C(=O)N3CCCC(CNC(=O)c4ccc(Cl)s4)C3)sc2C1 (stereo unspecified) | – | – | – | 6830 | – | –
23 | O=C(NCc1ccccc1C(=O)Nc1ccc(N2CCOCC2=O)cc1)c1ccc(Cl)s1 | 2.5 | 120 (≈ 255 µM) | 140 (≈ 298 µM) | 9 | 1 | –
24 | CN1CCc2nc(C(=O)Nc3ccccc3CNC(=O)c3ccc(Cl)s3)sc2C1.Cl | – | – | – | – | – | Tmax [8]: 0.5 h; Cmax [9]: 83.7 ng/mL; half-life [10]: 3.8 h; AUC(0-t) at 24 h [11]: 697 ng·h/mL
